In the supplement of paper PMC10307832:

Legend:
Test in all cases: relative viability (nuclei count vs DMSO), 5 days (fraction); higher = more cells survive
JZL-184 + Luminespib = compound: C1CN(CCC1C(C2=CC3=C(C=C2)OCO3)(C4=CC5=C(C=C4)OCO5)O)C(=O)OC6=CC=C(C=C6)[N+](=O)[O-] [JZL-184] + CCNC(=O)c1noc(-c2cc(C(C)C)c(O)cc2O)c1-c1ccc(CN2CCOCC2)cc1 [Luminespib] (partner 0.01 µM)
In short: (§1)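 One day after seeding in 1536-well plates, lung cancer cell lines were dosed by pin tool. Dosing was either single-drug or a fixed anchor-drug dose plus five library-drug doses (not always all listed) in √10 steps. After 5 days, nuclei were stained in one fix-and-stain step and counted on 4× images, and relative viability is the nuclei count of treated wells over that of vehicle wells, given as the median of duplicate plates.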

JZL-184 + Foretinib = compound: C1CN(CCC1C(C2=CC3=C(C=C2)OCO3)(C4=CC5=C(C=C4)OCO5)O)C(=O)OC6=CC=C(C=C6)[N+](=O)[O-] [JZL-184] + COc1cc2c(Oc3ccc(NC(=O)C4(C(=O)Nc5ccc(F)cc5)CC4)cc3F)ccnc2cc1OCCCN1CCOCC1 [Foretinib] (partner 0.25 µM)
In short: as §1

JZL-184 + OSI-027 = compound: C1CN(CCC1C(C2=CC3=C(C=C2)OCO3)(C4=CC5=C(C=C4)OCO5)O)C(=O)OC6=CC=C(C=C6)[N+](=O)[O-] [JZL-184] + COc1cccc2cc(-c3nc([C@H]4CC[C@H](C(=O)O)CC4)n4ncnc(N)c34)[nH]c12 [OSI-027] (partner 0.5 µM)
In short: as §1

JZL-184 + Alpelisib = compound: C1CN(CCC1C(C2=CC3=C(C=C2)OCO3)(C4=CC5=C(C=C4)OCO5)O)C(=O)OC6=CC=C(C=C6)[N+](=O)[O-] [JZL-184] + Cc1nc(NC(=O)N2CCC[C@H]2C(N)=O)sc1-c1ccnc(C(C)(C)C(F)(F)F)c1 [Alpelisib] (partner 2 µM)
In short: as §1

JZL-184 + Decitabine = compound: C1CN(CCC1C(C2=CC3=C(C=C2)OCO3)(C4=CC5=C(C=C4)OCO5)O)C(=O)OC6=CC=C(C=C6)[N+](=O)[O-] [JZL-184] + Nc1ncn([C@H]2C[C@H](O)[C@@H](CO)O2)c(=O)n1 [Decitabine] (partner 2 µM)
In short: as §1

Cell Line | relative viability (JZL-184 + Luminespib; first compound 0.04 µM) | relative viability (JZL-184 + Luminespib; first compound 0.4 µM) | relative viability (JZL-184 + Luminespib; first compound 1.265 µM) | relative viability (JZL-184 + Luminespib; first compound 4 µM) | relative viability (JZL-184 + Foretinib; first compound 0.04 µM) | relative viability (JZL-184 + Foretinib; first compound 0.4 µM) | relative viability (JZL-184 + Foretinib; first compound 1.265 µM) | relative viability (JZL-184 + Foretinib; first compound 4 µM) | relative viability (JZL-184 + OSI-027; first compound 0.04 µM) | relative viability (JZL-184 + OSI-027; first compound 0.4 µM) | relative viability (JZL-184 + OSI-027; first compound 1.265 µM) | relative viability (JZL-184 + OSI-027; first compound 4 µM) | relative viability (JZL-184 + Alpelisib; first compound 0.04 µM) | relative viability (JZL-184 + Alpelisib; first compound 0.4 µM) | relative viability (JZL-184 + Alpelisib; first compound 1.265 µM) | relative viability (JZL-184 + Alpelisib; first compound 4 µM) | relative viability (JZL-184 + Decitabine; first compound 0.04 µM) | relative viability (JZL-184 + Decitabine; first compound 0.4 µM) | relative viability (JZL-184 + Decitabine; first compound 1.265 µM) | relative viability (JZL-184 + Decitabine; first compound 4 µM)
A-427 | 1.14 | 0.79 | 1.11 | 0.972 | 1.06 | 1.03 | 1.33 | 0.972 | 0.469 | 0.435 | 0.479 | 0.474 | 1.08 | 1.06 | 1.1 | 0.979 | 0.617 | 0.585 | 0.599 | 0.537
IA-LM |  |  |  |  | 1.47 | 1.08 | 1.22 | 1.11 |  |  |  |  | 0.991 | 0.526 | 0.886 | 0.744 |  |  |  | 
ChaGo-K-1 | 0.592 | 0.591 | 0.623 | 0.598 | 0.981 | 0.872 | 0.96 | 0.911 | 0.637 | 0.63 | 0.635 | 0.555 |  |  |  |  | 0.505 | 0.498 | 0.514 | 0.526
NCI-H2342 | 0.687 | 0.61 | 0.683 | 0.783 | 1.04 | 1.11 | 1.26 | 1.12 | 0.614 | 0.548 | 0.617 | 0.704 |  |  |  |  | 0.736 | 0.691 | 0.716 | 0.817
SK-MES-1 | 0.913 | 0.765 | 0.874 | 0.726 | 1.01 | 1.02 | 1.02 | 0.86 | 0.597 | 0.625 | 0.673 | 0.535 | 0.938 | 0.851 | 0.863 | 0.896 | 0.448 | 0.381 | 0.405 | 0.403
LCLC-97TM1 | 0.812 | 0.66 | 0.828 | 0.653 | 1.01 | 0.981 | 0.979 | 0.867 | 0.493 | 0.393 | 0.504 | 0.559 | 0.242 |  | 0.252 | 0.295 | 0.228 | 0.2 | 0.236 | 0.216
NCI-H2170 | 0.712 | 0.651 | 0.762 | 0.491 | 1.05 | 0.941 | 0.977 | 0.966 | 0.721 | 0.758 | 0.759 | 0.682 | 0.806 | 0.793 | 0.74 | 0.736 | 0.497 | 0.475 | 0.473 | 0.476
NCI-H1993 | 0.846 | 0.745 | 0.885 | 0.968 | 0.769 | 0.669 | 0.758 | 0.816 | 0.523 | 0.498 | 0.497 | 0.532 | 0.719 | 0.72 | 0.711 | 0.677 | 0.572 | 0.588 | 0.577 | 0.559
NCI-H460 | 0.0429 | 0.0344 | 0.0404 | 0.0362 | 1.03 | 0.904 | 0.957 | 1.02 | 1.03 | 0.678 | 0.575 | 0.632 | 0.643 | 0.465 | 0.47 | 0.401 | 0.629 | 0.45 | 0.463 | 0.442
